Data set [1] can be described thus: Redissolution in water of evaporated salt residue, pH and taste. It is filed as physicochemical. Here is the method: The meglumine salt of ibuprofen was formed by dissolving 10 grams of Ibuprofen, USP, in 330 milliliters of Alcohol, USP to which was added 10 grams of Meglumine, USP. The ibuprofen-meglumine molar ratio was 1:1.0566.
For data set [2] the following is noted: in alcohol; cited from earlier work.

Structures can show the parent of a compound that is named as a salt.

Regarding `CC(C)Cc1ccc(C(C)C(=O)O)cc1` (stereo not drawn) [meglumine ibuprofen salt], in data set [1] (740 milligrams of residue in 7.5 milliliters of water, 200 mg/5ml), the “ibuprofen concentration of clear solution as the meglumine salt” value was “approximately 4 % w/v”. For the same compound, the “pH of salt solution” value in data set [1] (approximately 4% w/v ibuprofen in water) stood at 8.35. For the compound `CNC[C@H](O)[C@@H](O)[C@H](O)[C@H](O)CO` [meglumine, Meglumine], in data set [2], the “meglumine alcohol solubility limit” value is reported as 1.2 grams in 100 ml.

Source of the values: patent US5028625A, “Acid addition salt of ibuprofen and meglumine” (priority 1989, dated 1991).
